Data as given in paper PMC8401933 (Molecules, 2021).

Columns and labels:
Assay in all cases: KINOMEscan binding
Conditions in all cases: read-out: Percent Control
[1] = target: T1, RET(M918T) (Homo sapiens, UniProt P07949, M918T)
T1 construct: purchased Eurofins DiscoverX KINOMEscan

[2] = target: T2, CAMK1G (Homo sapiens, UniProt Q96NX5)
T2 construct: purchased Eurofins DiscoverX KINOMEscan

[3] = target: T3, GRK1 (Homo sapiens, UniProt Q15835)
T3 construct: purchased Eurofins DiscoverX KINOMEscan

[4] = target: T4, TAK1 (Homo sapiens, UniProt O43318)
T4 construct: purchased Eurofins DiscoverX KINOMEscan

[5] = target: T5, MEK1 (Homo sapiens, UniProt Q02750)
T5 construct: purchased Eurofins DiscoverX KINOMEscan

[6] = target: T6, MELK (Homo sapiens, UniProt Q14680)
T6 construct: purchased Eurofins DiscoverX KINOMEscan

[7] = target: T7, RET(V804M) (Homo sapiens, UniProt P07949, V804M)
T7 construct: purchased Eurofins DiscoverX KINOMEscan

[8] = target: T8, PIP5K1A (Homo sapiens, UniProt Q99755)
T8 construct: purchased Eurofins DiscoverX KINOMEscan

[9] = target: T9, ERBB4 (Homo sapiens, UniProt Q15303)
T9 construct: purchased Eurofins DiscoverX KINOMEscan

[10] = target: T10, BUB1 (Homo sapiens, UniProt O43683)
T10 construct: purchased Eurofins DiscoverX KINOMEscan

[11] = target: T11, ABL1(T315I)-nonphosphorylated (Homo sapiens, UniProt P00519, T315I)
T11 construct: purchased Eurofins DiscoverX KINOMEscan

[12] = target: T12, IGF1R (Homo sapiens, UniProt P08069)
T12 construct: purchased Eurofins DiscoverX KINOMEscan

[13] = target: T13, ABL1(F317I)-phosphorylated (Homo sapiens, UniProt P00519, F317I)
T13 construct: purchased Eurofins DiscoverX KINOMEscan

[14] = target: T14, FLT3 (Homo sapiens, UniProt P36888)
T14 construct: purchased Eurofins DiscoverX KINOMEscan

[15] = target: T15, RIPK4 (Homo sapiens, UniProt P57078)
T15 construct: purchased Eurofins DiscoverX KINOMEscan

[16] = target: T16, PYK2 (Homo sapiens, UniProt Q14289)
T16 construct: purchased Eurofins DiscoverX KINOMEscan

[17] = target: T17, HIPK1 (Homo sapiens, UniProt Q86Z02)
T17 construct: purchased Eurofins DiscoverX KINOMEscan

[18] = target: T18, STK36 (Homo sapiens, UniProt Q9NRP7)
T18 construct: purchased Eurofins DiscoverX KINOMEscan

[19] = target: T19, FGFR3 (Homo sapiens, UniProt P22607)
T19 construct: purchased Eurofins DiscoverX KINOMEscan

[20] = target: T20, RSK4(Kin.Dom.2-C-terminal) (Homo sapiens, UniProt Q9UK32)
T20 construct: RSK4(Kin.Dom.2-C-terminal); purchased Eurofins DiscoverX KINOMEscan

[21] = target: T21, HCK (Homo sapiens, UniProt P08631)
T21 construct: purchased Eurofins DiscoverX KINOMEscan

[22] = target: T22, TLK1 (Homo sapiens, UniProt Q9UKI8)
T22 construct: purchased Eurofins DiscoverX KINOMEscan

[23] = target: T23, PDGFRB (Homo sapiens, UniProt P09619)
T23 construct: purchased Eurofins DiscoverX KINOMEscan

[24] = target: T24, CDK4-cyclinD1 (Homo sapiens, UniProt P11802)
T24 construct: purchased Eurofins DiscoverX KINOMEscan

[25] = target: T25, RSK1(Kin.Dom.2-C-terminal) (Homo sapiens, UniProt Q15418)
T25 construct: RSK1(Kin.Dom.2-C-terminal); purchased Eurofins DiscoverX KINOMEscan

[26] = target: T26, NEK10 (Homo sapiens, UniProt Q6ZWH5)
T26 construct: purchased Eurofins DiscoverX KINOMEscan

[27] = target: T27, ULK3 (Homo sapiens, UniProt Q6PHR2)
T27 construct: purchased Eurofins DiscoverX KINOMEscan

[28] = target: T28, STK35 (Homo sapiens, UniProt Q8TDR2)
T28 construct: purchased Eurofins DiscoverX KINOMEscan

[29] = target: T29, ACVR2B (Homo sapiens, UniProt Q13705)
T29 construct: purchased Eurofins DiscoverX KINOMEscan

[30] = target: T30, CSNK1G3 (Homo sapiens, UniProt Q9Y6M4)
T30 construct: purchased Eurofins DiscoverX KINOMEscan

[31] = target: T31, SRPK3 (Homo sapiens, UniProt Q9UPE1)
T31 construct: purchased Eurofins DiscoverX KINOMEscan

[32] = target: T32, FGFR3(G697C) (Homo sapiens, UniProt P22607, G697C)
T32 construct: purchased Eurofins DiscoverX KINOMEscan

[33] = target: T33, DCAMKL3 (Homo sapiens, UniProt Q9C098)
T33 construct: purchased Eurofins DiscoverX KINOMEscan

[34] = target: T34, EPHA2 (Homo sapiens, UniProt P29317)
T34 construct: purchased Eurofins DiscoverX KINOMEscan

[35] = target: T35, CDC2L1 (Homo sapiens, UniProt P21127)
T35 construct: purchased Eurofins DiscoverX KINOMEscan

[36] = target: T36, PIK3C2B (Homo sapiens, UniProt O00750)
T36 construct: purchased Eurofins DiscoverX KINOMEscan

[37] = target: T37, RPS6KA4(Kin.Dom.2-C-terminal) (Homo sapiens, UniProt O75676)
T37 construct: RPS6KA4(Kin.Dom.2-C-terminal); purchased Eurofins DiscoverX KINOMEscan

[38] = target: T38, PRKCQ (Homo sapiens, UniProt Q04759)
T38 construct: purchased Eurofins DiscoverX KINOMEscan

[39] = target: T39, PKNB(M.tuberculosis) (Mycobacterium tuberculosis, UniProt P9WI81)
T39 construct: purchased Eurofins DiscoverX KINOMEscan

[40] = target: T40, KIT(V559D,T670I) (Homo sapiens, UniProt P10721, T670I/V559D)
T40 construct: purchased Eurofins DiscoverX KINOMEscan

[41] = target: T41, DRAK1 (Homo sapiens, UniProt Q9UEE5)
T41 construct: purchased Eurofins DiscoverX KINOMEscan

[42] = target: T42, VRK2 (Homo sapiens, UniProt Q86Y07)
T42 construct: purchased Eurofins DiscoverX KINOMEscan
T42 sequence (Q86Y07 whole entry): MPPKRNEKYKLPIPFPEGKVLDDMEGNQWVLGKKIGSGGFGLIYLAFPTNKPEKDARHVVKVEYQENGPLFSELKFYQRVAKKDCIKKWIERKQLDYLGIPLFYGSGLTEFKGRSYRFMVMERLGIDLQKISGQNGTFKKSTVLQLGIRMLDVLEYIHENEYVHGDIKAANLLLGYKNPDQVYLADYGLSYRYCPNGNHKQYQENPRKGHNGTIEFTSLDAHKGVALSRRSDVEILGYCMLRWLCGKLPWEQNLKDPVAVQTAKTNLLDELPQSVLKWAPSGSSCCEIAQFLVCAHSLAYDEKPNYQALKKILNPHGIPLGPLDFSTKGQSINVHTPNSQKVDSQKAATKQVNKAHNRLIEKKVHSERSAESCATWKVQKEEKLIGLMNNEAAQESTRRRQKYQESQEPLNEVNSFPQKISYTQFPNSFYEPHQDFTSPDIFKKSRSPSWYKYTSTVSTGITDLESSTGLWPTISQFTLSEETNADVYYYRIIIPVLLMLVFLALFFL

T12 sequence (P08069 31-1367): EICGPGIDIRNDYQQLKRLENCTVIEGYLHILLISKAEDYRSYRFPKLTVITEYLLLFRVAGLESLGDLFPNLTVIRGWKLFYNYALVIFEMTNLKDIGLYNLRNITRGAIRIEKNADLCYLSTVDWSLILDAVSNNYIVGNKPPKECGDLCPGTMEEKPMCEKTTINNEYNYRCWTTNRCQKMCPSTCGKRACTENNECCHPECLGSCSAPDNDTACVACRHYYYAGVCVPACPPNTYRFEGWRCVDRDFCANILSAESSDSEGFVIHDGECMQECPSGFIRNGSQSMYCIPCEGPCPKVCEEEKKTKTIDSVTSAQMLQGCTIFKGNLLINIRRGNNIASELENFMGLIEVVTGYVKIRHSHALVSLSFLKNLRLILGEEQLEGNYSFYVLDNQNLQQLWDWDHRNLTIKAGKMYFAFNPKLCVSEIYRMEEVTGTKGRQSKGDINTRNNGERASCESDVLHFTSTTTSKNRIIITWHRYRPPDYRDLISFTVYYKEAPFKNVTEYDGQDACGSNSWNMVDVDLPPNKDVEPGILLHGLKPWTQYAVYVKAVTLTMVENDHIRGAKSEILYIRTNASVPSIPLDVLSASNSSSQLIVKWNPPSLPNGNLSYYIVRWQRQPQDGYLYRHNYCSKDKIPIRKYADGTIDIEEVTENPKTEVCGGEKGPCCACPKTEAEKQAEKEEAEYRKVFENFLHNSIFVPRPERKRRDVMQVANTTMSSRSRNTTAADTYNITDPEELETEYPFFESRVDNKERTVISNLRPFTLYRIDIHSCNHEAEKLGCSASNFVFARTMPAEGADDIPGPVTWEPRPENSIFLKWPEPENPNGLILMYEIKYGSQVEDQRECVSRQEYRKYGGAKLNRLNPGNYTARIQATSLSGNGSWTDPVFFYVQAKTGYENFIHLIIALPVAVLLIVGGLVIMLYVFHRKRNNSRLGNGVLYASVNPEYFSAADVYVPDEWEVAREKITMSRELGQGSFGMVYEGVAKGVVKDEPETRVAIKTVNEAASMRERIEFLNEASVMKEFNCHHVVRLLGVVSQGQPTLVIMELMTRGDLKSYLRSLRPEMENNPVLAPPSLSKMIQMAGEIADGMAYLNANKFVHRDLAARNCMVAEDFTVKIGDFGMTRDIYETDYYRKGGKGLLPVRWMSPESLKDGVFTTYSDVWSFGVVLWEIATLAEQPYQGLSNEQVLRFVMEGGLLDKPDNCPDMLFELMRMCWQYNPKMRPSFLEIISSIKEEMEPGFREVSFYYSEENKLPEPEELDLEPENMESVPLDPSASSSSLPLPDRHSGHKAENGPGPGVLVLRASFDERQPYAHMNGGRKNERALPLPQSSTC
T23 sequence (P09619 33-1106): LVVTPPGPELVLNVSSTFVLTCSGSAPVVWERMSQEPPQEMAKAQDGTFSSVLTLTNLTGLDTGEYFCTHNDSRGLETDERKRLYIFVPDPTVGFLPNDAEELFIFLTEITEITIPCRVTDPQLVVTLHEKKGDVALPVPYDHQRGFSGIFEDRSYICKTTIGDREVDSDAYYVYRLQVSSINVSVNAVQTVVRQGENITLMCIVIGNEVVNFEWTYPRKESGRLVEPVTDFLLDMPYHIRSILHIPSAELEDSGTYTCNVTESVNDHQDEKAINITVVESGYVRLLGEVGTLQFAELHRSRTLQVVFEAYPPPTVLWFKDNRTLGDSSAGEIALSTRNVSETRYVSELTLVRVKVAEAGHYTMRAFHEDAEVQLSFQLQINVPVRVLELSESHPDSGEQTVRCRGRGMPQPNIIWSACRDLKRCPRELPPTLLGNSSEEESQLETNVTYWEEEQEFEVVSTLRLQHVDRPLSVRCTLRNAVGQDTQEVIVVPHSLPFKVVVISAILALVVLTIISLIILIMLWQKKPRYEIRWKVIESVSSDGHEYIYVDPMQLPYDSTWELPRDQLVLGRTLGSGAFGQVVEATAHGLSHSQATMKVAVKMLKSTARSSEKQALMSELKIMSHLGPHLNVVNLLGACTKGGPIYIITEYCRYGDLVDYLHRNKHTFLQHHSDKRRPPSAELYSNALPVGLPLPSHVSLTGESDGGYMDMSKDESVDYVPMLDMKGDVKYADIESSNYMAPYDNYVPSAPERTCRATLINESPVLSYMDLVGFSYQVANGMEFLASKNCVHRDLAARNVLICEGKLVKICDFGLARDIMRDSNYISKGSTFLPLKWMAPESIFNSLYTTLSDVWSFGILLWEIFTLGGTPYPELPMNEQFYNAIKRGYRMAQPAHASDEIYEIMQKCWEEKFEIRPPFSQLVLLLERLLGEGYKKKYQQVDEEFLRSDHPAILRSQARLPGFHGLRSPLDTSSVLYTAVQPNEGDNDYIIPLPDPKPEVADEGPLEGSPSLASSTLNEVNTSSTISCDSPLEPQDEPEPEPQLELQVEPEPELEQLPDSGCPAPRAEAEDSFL
T24 sequence (P11802 whole entry): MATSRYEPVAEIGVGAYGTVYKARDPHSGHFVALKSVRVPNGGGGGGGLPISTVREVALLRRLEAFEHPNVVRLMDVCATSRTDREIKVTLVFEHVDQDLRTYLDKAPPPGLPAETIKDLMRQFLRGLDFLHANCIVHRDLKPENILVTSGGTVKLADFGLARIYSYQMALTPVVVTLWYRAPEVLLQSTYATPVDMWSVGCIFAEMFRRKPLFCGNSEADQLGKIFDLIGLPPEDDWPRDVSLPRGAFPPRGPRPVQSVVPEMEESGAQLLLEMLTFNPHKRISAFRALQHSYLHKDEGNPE
T24 sequence (P24385 whole entry partner): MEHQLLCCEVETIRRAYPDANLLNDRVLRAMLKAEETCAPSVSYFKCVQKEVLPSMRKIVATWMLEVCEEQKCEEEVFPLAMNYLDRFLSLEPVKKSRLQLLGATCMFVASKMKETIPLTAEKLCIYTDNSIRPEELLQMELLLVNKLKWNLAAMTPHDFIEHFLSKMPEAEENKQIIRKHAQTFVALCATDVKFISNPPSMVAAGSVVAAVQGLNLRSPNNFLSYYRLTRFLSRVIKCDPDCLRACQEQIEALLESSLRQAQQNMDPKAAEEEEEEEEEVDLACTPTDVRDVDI
T5 sequence (Q02750 whole entry): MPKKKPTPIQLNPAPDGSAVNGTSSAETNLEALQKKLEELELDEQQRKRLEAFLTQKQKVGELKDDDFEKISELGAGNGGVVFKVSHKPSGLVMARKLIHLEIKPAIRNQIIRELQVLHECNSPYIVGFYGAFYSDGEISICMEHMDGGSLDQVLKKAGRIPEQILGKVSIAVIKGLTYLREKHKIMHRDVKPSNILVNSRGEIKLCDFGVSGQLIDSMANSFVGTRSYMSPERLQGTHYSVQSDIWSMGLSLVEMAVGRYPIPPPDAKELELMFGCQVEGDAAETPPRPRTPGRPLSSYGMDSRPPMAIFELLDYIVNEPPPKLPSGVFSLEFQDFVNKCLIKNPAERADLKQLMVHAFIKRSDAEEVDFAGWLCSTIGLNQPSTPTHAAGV
T32 sequence (P22607 23-806 G697C): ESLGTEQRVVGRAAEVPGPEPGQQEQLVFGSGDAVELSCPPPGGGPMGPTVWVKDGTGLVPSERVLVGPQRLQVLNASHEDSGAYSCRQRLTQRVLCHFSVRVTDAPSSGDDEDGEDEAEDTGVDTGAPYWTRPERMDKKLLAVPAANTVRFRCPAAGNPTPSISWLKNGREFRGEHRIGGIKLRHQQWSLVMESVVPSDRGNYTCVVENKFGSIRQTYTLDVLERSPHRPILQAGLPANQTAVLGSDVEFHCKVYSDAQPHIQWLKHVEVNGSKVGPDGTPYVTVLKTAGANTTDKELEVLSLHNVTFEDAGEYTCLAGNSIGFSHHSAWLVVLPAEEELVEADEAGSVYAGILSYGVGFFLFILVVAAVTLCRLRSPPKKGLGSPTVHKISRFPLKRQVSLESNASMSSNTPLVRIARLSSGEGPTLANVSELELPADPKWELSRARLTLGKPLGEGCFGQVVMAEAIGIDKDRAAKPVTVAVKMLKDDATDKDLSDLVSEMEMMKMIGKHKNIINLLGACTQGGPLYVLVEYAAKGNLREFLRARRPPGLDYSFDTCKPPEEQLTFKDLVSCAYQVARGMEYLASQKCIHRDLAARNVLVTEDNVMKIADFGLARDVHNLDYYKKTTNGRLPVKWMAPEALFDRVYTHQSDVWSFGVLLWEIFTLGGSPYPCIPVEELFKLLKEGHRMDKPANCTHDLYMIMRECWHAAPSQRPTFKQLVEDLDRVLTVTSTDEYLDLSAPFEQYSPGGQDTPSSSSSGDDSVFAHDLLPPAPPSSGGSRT
T20 sequence (Q9UK32 401-745 limits assumed): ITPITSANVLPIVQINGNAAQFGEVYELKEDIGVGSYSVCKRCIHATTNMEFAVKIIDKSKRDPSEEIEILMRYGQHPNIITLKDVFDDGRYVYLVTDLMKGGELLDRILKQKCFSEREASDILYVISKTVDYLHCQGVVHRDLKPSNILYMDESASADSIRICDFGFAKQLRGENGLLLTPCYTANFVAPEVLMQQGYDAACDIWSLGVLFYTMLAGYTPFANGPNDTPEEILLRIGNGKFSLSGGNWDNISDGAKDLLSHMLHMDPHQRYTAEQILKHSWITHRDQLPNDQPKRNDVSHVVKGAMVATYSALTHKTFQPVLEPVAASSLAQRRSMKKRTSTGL

Q: How did the remaining binding at 10 µM [1] turn out when CC(C)NC(=O)COc1cccc(-c2nc(Nc3ccc4[nH]ncc4c3)c3ccccc3n2)c1 [KD025, 2-(3-(4-((1H-indazol-5-yl)amino)quinazolin-2-yl)phenoxy)-N-isopropylacetamide] was run?
A: The remaining binding at 10 µM was 66%.

Q: And the remaining binding at 10 µM [2]?
A: Its remaining binding at 10 µM is 88%.

Q: And the remaining binding at 10 µM [3]?
A: The remaining binding at 10 µM was 64%.

Q: And the remaining binding at 10 µM [4]?
A: The remaining binding at 10 µM was 68%.

Q: And the remaining binding at 10 µM [5]?
A: Its remaining binding at 10 µM is 72%.

Q: And the remaining binding at 10 µM [6]?
A: The remaining binding at 10 µM was 83%.

Q: And the remaining binding at 10 µM [7]?
A: The remaining binding at 10 µM was 59%.

Q: What about the remaining binding at 10 µM [8] of the same compound?
A: Its remaining binding at 10 µM is 6%.

Q: And the remaining binding at 10 µM [9]?
A: The remaining binding at 10 µM was 57%.

Q: What about the remaining binding at 10 µM [10] of the same compound?
A: The remaining binding at 10 µM was 69%.

Q: What about the remaining binding at 10 µM [11] of the same compound?
A: The remaining binding at 10 µM was 93%.

Q: What about the remaining binding at 10 µM [12] of the same compound?
A: Its remaining binding at 10 µM is 56%.

Q: And the remaining binding at 10 µM [13]?
A: The remaining binding at 10 µM was 93%.

Q: And the remaining binding at 10 µM [14]?
A: The remaining binding at 10 µM was 60%.

Q: And the remaining binding at 10 µM [15]?
A: Its remaining binding at 10 µM is 100%.

Q: What about the remaining binding at 10 µM [16] of the same compound?
A: Its remaining binding at 10 µM is 95%.

Q: What about the remaining binding at 10 µM [17] of the same compound?
A: The remaining binding at 10 µM was 58%.

Q: And the remaining binding at 10 µM [18]?
A: The remaining binding at 10 µM was 91%.

Q: What about the remaining binding at 10 µM [19] of the same compound?
A: The remaining binding at 10 µM was 72%.

Q: And the remaining binding at 10 µM [20]?
A: The remaining binding at 10 µM was 88%.

Q: What about the remaining binding at 10 µM [21] of the same compound?
A: Its remaining binding at 10 µM is 95%.

Q: What about the remaining binding at 10 µM [22] of the same compound?
A: Its remaining binding at 10 µM is 100%.

Q: What about the remaining binding at 10 µM [23] of the same compound?
A: The remaining binding at 10 µM was 76%.

Q: And the remaining binding at 10 µM [24]?
A: Its remaining binding at 10 µM is 89%.

Q: And the remaining binding at 10 µM [25]?
A: Its remaining binding at 10 µM is 100%.

Q: And the remaining binding at 10 µM [26]?
A: Its remaining binding at 10 µM is 96%.

Q: What about the remaining binding at 10 µM [27] of the same compound?
A: The remaining binding at 10 µM was 90%.

Q: And the remaining binding at 10 µM [28]?
A: The remaining binding at 10 µM was 84%.

Q: And the remaining binding at 10 µM [29]?
A: The remaining binding at 10 µM was 91%.

Q: What about the remaining binding at 10 µM [30] of the same compound?
A: The remaining binding at 10 µM was 100%.

Q: And the remaining binding at 10 µM [31]?
A: Its remaining binding at 10 µM is 5.7%.

Q: What about the remaining binding at 10 µM [32] of the same compound?
A: Its remaining binding at 10 µM is 77%.

Q: And the remaining binding at 10 µM [33]?
A: The remaining binding at 10 µM was 64%.

Q: What about the remaining binding at 10 µM [34] of the same compound?
A: Its remaining binding at 10 µM is 59%.

Q: What about the remaining binding at 10 µM [35] of the same compound?
A: The remaining binding at 10 µM was 98%.

Q: What about the remaining binding at 10 µM [36] of the same compound?
A: Its remaining binding at 10 µM is 67%.

Q: And the remaining binding at 10 µM [37]?
A: The remaining binding at 10 µM was 91%.

Q: What about the remaining binding at 10 µM [38] of the same compound?
A: Its remaining binding at 10 µM is 41%.

Q: What about the remaining binding at 10 µM [39] of the same compound?
A: The remaining binding at 10 µM was 83%.

Q: What about the remaining binding at 10 µM [40] of the same compound?
A: The remaining binding at 10 µM was 98%.

Q: And the remaining binding at 10 µM [41]?
A: The remaining binding at 10 µM was 39%.

Q: And the remaining binding at 10 µM [42]?
A: The remaining binding at 10 µM was 71%.
